Data set [1] has as its system Zucker Diabetic Fatty (ZDF) rats (ZDF/Crl-Lepr^fa). As to the kind of experiment: Oral glucose tolerance test in overnight fasted 9-weeks old male ZDF rats. It is filed as in vivo, rat. Particulars: 1st Example, FIG. 1; single oral dose 30 min before oral glucose load 2 g/kg; Cpd. A 3 mg/kg, Cpd. B 100 mg/kg, combination at the same doses; versus vehicle. As to the method: (§1) According to a first example an oral glucose tolerance test is performed in overnight fasted 9-weeks old male Zucker Diabetic Fatty (ZDF) rats (ZDF/Crl-Lepr^fa). A pre-dose blood sample is obtained by tail bleed. Blood glucose is measured with a glucometer, and the animals are randomized for blood glucose (n=5/group). […] The animals receive an oral glucose load (2 g/kg) 30 min after compound administration. Blood glucose is measured in tail blood 15 min, 30 min, 60 min, and 90 min after the glucose challenge. Glucose excursion is quantified by calculating the reactive glucose AUC. The data are presented as mean±SEM. The two-sided unpaired Student t-test is used for statistical comparison of the control group and the active groups as well as between active groups.

Data set [2] has the same test system. In words: Oral glucose tolerance test in overnight fasted 15-weeks old male ZDF rats (highly insulin-resistant model). It is filed as in vivo, rat. Particulars: single oral dose 30 min before oral glucose load 2 g/kg, Cpd. A 3 mg/kg, combination at the same doses, versus vehicle. As for the experimental part:
as §1, with “to a second example an” for “to a first example an”, “overnight fasted 15-weeks old male” for “overnight fasted 9-weeks old male”, “rats (ZDF/Crl-Lepr^fa). This aged ZDF rats serve as a highly insulin-resistant animal model. A pre-dose” for “rats (ZDF/Crl-Lepr^fa). A pre-dose”, “tail blood 30 min,” for “tail blood 15 min, 30 min,”, “60 min, 90 min, 120 min, and 180” for “60 min, and 90”, “min, and 180 min after” for “min, and 90 min after”

A short description of data set [3]: Excretion route of BI 1356 at therapeutic oral dose levels. Type of data set: in vivo.

Results on one molecule are retold here after patent US20130109703A1, “Combination of a GPR119 Agonist and the DPP-IV Inhibitor Linagliptin for Use in the Treatment of Diabetes and Related Conditions” (Boehringer Ingelheim International GmbH, priority 2010, published 2013).

Some results are limits rather than exact numbers.

Consider `CC#CCn1c(N2CCC[C@@H](N)C2)nc2c1c(=O)n(Cc1nc(C)c3ccccc3n1)c(=O)n2C` [Cpd. A, 1-[(4-methyl-quinazolin-2-yl)methyl]-3-methyl-7-(2-butyn-1-yl)-8-(3-(R)-amino-piperidin-1-yl)-xanthine], for which the “reduction of glucose excursion (reactive glucose AUC)” value came to 49% in data set [1]; 1% in data set [2] (2nd Example, FIG. 2, Cpd. B 30 mg/kg); 1% in data set [2] (3rd Example, FIG. 3, Cpd. B 10 mg/kg). In addition, in data set [3], the “excretion via the kidney” value is given as < 7 % of the administered oral dose.
